This passage reports Ki results from ChEMBL document CHEMBL2424531, “Molecular docking- and genetic algorithm-based approaches to produce robust 3D-QSAR models” (Med Chem Res, 2013).

This assay in a line: Inhibition of glycogen phosphorylase b (unknown origin). The arrangement: species or system Homo sapiens.

As usually defined, the Ki is a dissociation constant, usually derived from enzyme kinetics or from competition with a known ligand. A high value points to lower affinity. `OC[C@H]1O[C@@H](Oc2cc3ccccc3[nH]2)[C@H](O)[C@@H](O)[C@@H]1O` displayed a Ki of 2600 µM. In the case of `O=C1CNC(=O)C2(N1)O[C@H](CO)[C@@H](O)[C@H](O)[C@H]2O` (stereo partly specified) it was 59.7 µM; in that of `O=C(Nc1ccc(O)cc1)[C@@H]1O[C@H](CO)[C@@H](O)[C@H](O)[C@H]1O`, 4400 µM.

For the compound `NC(=O)NC1O[C@H](CO)[C@@H](O)[C@H](O)[C@H]1O` (single isomer, unassigned), the affinity, expressed as Ki, was 140 µM.

Take `NC[C@H]1O[C@H](CO)[C@@H](O)[C@H](O)[C@H]1O`: the Ki came to 34500 µM. `C[C@H]1O[C@H](CO)[C@@H](O)[C@H](O)[C@H]1O` yielded a Ki of 53100 µM.

In the case of `CNNC(=O)C1O[C@H](CO)[C@@H](O)[C@H](O)[C@H]1O` (single isomer, unassigned), the affinity, expressed as Ki, was 1800 µM. In the case of `COC(=O)N[C@]1(C(N)=O)O[C@H](CO)[C@@H](O)[C@H](O)[C@H]1O` it was 16 µM; in that of `O=C(CBr)N[C@@H]1O[C@H](CO)[C@@H](O)[C@H](O)[C@H]1O`, 44 µM. In the case of `O=C(NC1CC1)[C@@H]1O[C@H](CO)[C@@H](O)[C@H](O)[C@H]1O` it was 1300 µM; in that of `CCC(=O)NC1O[C@H](CO)[C@@H](O)[C@H](O)[C@H]1O` (single isomer, unassigned), 39 µM; in that of `CS(=O)(=O)OC[C@]1(O)O[C@H](CO)[C@@H](O)[C@H](O)[C@H]1O`, 3700 µM. Consider `O=C(NCc1ccc(F)cc1F)[C@H]1O[C@H](CO)[C@@H](O)[C@H](O)[C@H]1O`, for which affinity was put at a Ki of 27200 µM. In the case of `O=C(CCl)NC1O[C@H](CO)[C@@H](O)[C@H](O)[C@H]1O` (single isomer, unassigned) it was 45 µM. In the case of `O=C(O)[C@H]1O[C@H](CO)[C@@H](O)[C@H](O)[C@H]1O` it was 15200 µM. In the case of `CO[C@@H]1O[C@H](CO)[C@@H](O)[C@H](O)[C@H]1O` it was 24700 µM; in that of `NCC[C@@H]1O[C@H](CO)[C@@H](O)[C@H](O)[C@H]1O`, 4500 µM. `CCCC(=O)NC1O[C@H](CO)[C@@H](O)[C@H](O)[C@H]1O` (single isomer, unassigned) gave a Ki of 94 µM. In the case of `N#CC[C@]1(O)O[C@H](CO)[C@@H](O)[C@H](O)[C@H]1O` it was 7600 µM.

Regarding `O=C(NC1O[C@H](CO)[C@@H](O)[C@H](O)[C@H]1O)c1ccccc1` (single isomer, unassigned), the Ki was 81 µM. In the case of `NC[C@@H]1O[C@H](CO)[C@@H](O)[C@H](O)[C@H]1O` it was 16800 µM.

`OC[C@H]1O[C@H](CO)[C@@H](O)[C@H](O)[C@H]1O` displayed a Ki of 1500 µM. For `O=C(NCCO)[C@H]1O[C@H](CO)[C@@H](O)[C@H](O)[C@H]1O`, the affinity, expressed as Ki, was 16900 µM. In the case of `NCC(=O)N[C@@H]1O[C@H](CO)[C@@H](O)[C@H](O)[C@H]1O` it was 370 µM; in that of `O=C(Nc1ccccc1)[C@@H]1O[C@H](CO)[C@@H](O)[C@H](O)[C@H]1O`, 5400 µM; in that of `COC(=O)N[C@@H]1O[C@H](CO)[C@@H](O)[C@H](O)[C@H]1O`, 85 µM. In the case of `O=C(CSC1O[C@H](CO)[C@@H](O)[C@H](O)[C@H]1O)Nc1ccccc1` (single isomer, unassigned) it was 3600 µM; in that of `CNC(=O)[C@@H]1O[C@H](CO)[C@@H](O)[C@H](O)[C@H]1O`, 160 µM; in that of `O=C(NCCO)[C@@H]1O[C@H](CO)[C@@H](O)[C@H](O)[C@H]1O`, 2600 µM.

Compound `NN1C(=O)NC2(O[C@H](CO)[C@@H](O)[C@H](O)[C@H]2O)C1=O` (stereo partly specified) gave a Ki of 146 µM. In the case of `NNC(=O)[C@@H]1O[C@H](CO)[C@@H](O)[C@H](O)[C@H]1O` it was 400 µM; in that of `[N-]=[N+]=NC[C@H]1O[C@H](CO)[C@@H](O)[C@H](O)[C@H]1O`, 22400 µM; in that of `NC(=O)[C@@H]1O[C@H](CO)[C@@H](O)[C@H](O)[C@H]1O`, 440 µM. In the case of `OC[C@H]1O[C@@](O)(CO)[C@H](O)[C@@H](O)[C@@H]1O` it was 15800 µM; in that of `NC(=O)[C@H]1O[C@H](CO)[C@@H](O)[C@H](O)[C@H]1O`, 370 µM.

On to `N#CC[C@@H]1O[C@H](CO)[C@@H](O)[C@H](O)[C@H]1O`, for which the Ki stood at 9000 µM. In the case of `O=C(Nc1ccc(O)cc1)[C@H]1O[C@H](CO)[C@@H](O)[C@H](O)[C@H]1O` it was 5600 µM. The compound `OC[C@H]1O[C@@H](S)[C@H](O)[C@@H](O)[C@@H]1O` came in with a Ki of 1000 µM. `COC(=O)[C@@H]1O[C@H](CO)[C@@H](O)[C@H](O)[C@H]1O` had a Ki of 2800 µM. In the case of `O=C(NCC(F)(F)F)[C@@H]1O[C@H](CO)[C@@H](O)[C@H](O)[C@H]1O` it was 8100 µM. `NC(=O)CSC1O[C@H](CO)[C@@H](O)[C@H](O)[C@H]1O` (single isomer, unassigned) had a Ki of 21100 µM. Consider `CS(=O)(=O)OC[C@@H]1O[C@H](CO)[C@@H](O)[C@H](O)[C@H]1O`, for which the Ki was found to be 4800 µM. With `NNC(=O)[C@H]1O[C@H](CO)[C@@H](O)[C@H](O)[C@H]1O`, the affinity, expressed as Ki, was 3000 µM. In the case of `CC(=O)NCC(=O)NC1O[C@H](CO)[C@@H](O)[C@H](O)[C@H]1O` (single isomer, unassigned) it was 990 µM.

The compound `CNC(=O)[C@H]1O[C@H](CO)[C@@H](O)[C@H](O)[C@H]1O` gave a Ki of 36700 µM. In the case of `CC(=O)NC1O[C@H](CO)[C@@H](O)[C@H](O)[C@H]1O` (single isomer, unassigned) it was 32 µM. `OC[C@H]1S[C@H](O)[C@H](O)[C@@H](O)[C@@H]1O` showed a Ki of 2000 µM. In the case of `O=C(Nc1ccccc1)[C@H]1O[C@H](CO)[C@@H](O)[C@H](O)[C@H]1O` it was 12600 µM; in that of `COC(=O)[C@H]1O[C@H](CO)[C@@H](O)[C@H](O)[C@H]1O`, 24200 µM; in that of `[N-]=[N+]=NC[C@]1(O)O[C@H](CO)[C@@H](O)[C@H](O)[C@H]1O`, 7400 µM. In the case of `O=C(CSC1O[C@H](CO)[C@@H](O)[C@H](O)[C@H]1O)Nc1ccc(F)cc1F` (single isomer, unassigned) it was 18900 µM.
